Measurements published in patent US20230416331A1, “PEPTIDE CONJUGATES OF PEPTIDIC TUBULIN INHIBITORS AS THERAPEUTICS” (priority 2021, published 2023).
Where a SMILES comes first, the peptide text is derived from it. [ ]: non-standard residue; d: D form. The star is where a group is joined. Dolaproine = CO[C@@H]([C@@H]1CCCN1)[C@@H](C)C(=O)O; Dil = CC[C@H](C)[C@H](NC)[C@@H](CC(=O)O)OC; X1 = C[C@@H](N*)[C@@H](O)c1ccccc1; NMeV = CN[C@H](C(=O)O)C(C)C

Assays:
[1] = test system: HCT116 colorectal cancer flank tumors; test: Efficacy of Compound 5 in a HCT116 colorectal xenograft model (Example N); format: in vivo, nude mice; settings: 1, 5 and 10 mg/kg IP QDx4
Protocol: Mice were administered intraperitoneal (IP) doses of vehicle, 1, 5, or 10 mg/kg Compound 5.

[2] = Tissue pharmacokinetics of Compound 2 in a mouse model (MMAE in tumor, muscle, bone marrow); format: in vivo, athymic nude mice bearing HCT116 tumors; settings: single IP 0.5 mg/kg MMAE or 3 mg/kg Compound 2; 4, 24, 48 h; LCMS
Protocol: When xenografts reached a minimal volume of 300 mm^3, mice were administered a single intraperitoneal injection of 0.5 mg/kg MMAE or 3 mg/kg Compound 2 prepared in a vehicle of 5% mannitol in citrate. Tumor, quadriceps muscle and bone marrow samples were collected from fed, anesthetized mice at 4, 24 and 48 hours after compound administration. MMAE concentrations in tissues were determined via LCMS.
A 75 μL volume of acetonitrile:formic acid (1000:1, v:v) containing internal standard (MMAE-D8) to the wells of a 96-well protein precipitation plate resting on top of a 0.700 mL 96-well LoBind polypropylene plate. Double blank and carryover sample wells received 75 μL of acetonitrile:formic acid (1000:1, v:v) without internal standard. A 25 μL volume of each matrix sample was added to the plate wells containing internal standard. Fortified samples were vortexed at 700 rpm for 1 minute and centrifuged at 3000 rpm for 2 minutes at 4° C. The protein precipitation plate was discarded. A 50 μL volume of mobile phase A (acetonitrile:water:200 mM ammonium formate (90:5:5, v:v:v)) was added to the 96-well polypropylene collection plate which was covered with a silicone cap mat. Final samples were vortexed at 700 rpm for 2 minutes and analysis was accomplished by injecting a 2 μL sample onto an LC-MS/MS system. […]

[3] = test system: HCT116 HER2 negative colorectal flank tumors; test: Efficacy in a HCT116 colorectal xenograft model (Example E); format: in vivo, nude mice; settings: IP QDx2
Protocol: Mice were administered intraperitoneal (IP) doses of vehicle, 0.25 mg/kg MMAE or 40 mg/kg Compound 1 (equivalent 7 mg/kg unconjugated MMAE).

HCT116 cells = test: In vitro cell cycle arrest functional assay (propidium iodide, flow cytometry); format: cell-based; settings: Homo sapiens, HCT-116, 24 h incubation, read-out: IC50 of dose responsive accumulation in G2/M
Protocol: Cell Incubation with MMAE and Compound 2 and Staining with Propidium Iodide
HCT116 cells were seeded in 6-well tissue culture plates at 500,000 cells per well in 2 mL of DMEM and incubated overnight in a 37° C., 5% CO2 incubator. 200 μL of dilutions of MMAE and Compound 2 which were made at 10× concentrations in DMEM+4% DMSO were added to appropriate wells of the 6-well plates and plates were incubated for 24 hours. After exposure of HCT116 cells to either MMAE or Compound 2, cells were harvested for propidium iodide staining and flow cytometry. Media was collected from each well and transferred into conical 15 mL centrifuge tubes to collect nonadherent cells. PBS (1 mL) was added to wash wells and was then transferred to the 15 mL tubes. Tryp-LE (1 mL) was added to each well and plates were incubated for 5 minutes in a 37° C., 5% CO2 incubator until the cells lifted off the well surface. A solution of DMEM+10% fetal bovine serum (1 mL) was added to each well. Wells were triturated and cells transferred to tubes. […] Cell counts and viability for each sample was assessed by trypan blue exclusion on a Bio-Rad TC20 cell counter. […]
An aliquot (1 mL) of each cell suspension was transferred into a deep-well polypropylene plate. […] Propidium iodide-stained cells were analyzed using a BD Acuri flow cytometer.

| SMILES | efficacy (mean tumor volume) [1] | distribution of unconjugated MMAE to tumor, muscle and bone marrow [2] | animals removed from the study by day ([3]; 0.25 mg/kg MMAE) | change in body weight ([3]; 0.25 mg/kg MMAE or 40 mg/kg Compound 1 (7 mg/kg MMAE equivalent)) | IC50 (HCT116 cells) |
| --- | --- | --- | --- | --- | --- |
| CC[C@H](C)[C@@H]([C@@H](CC(=O)N1CCC[C@H]1[C@H](OC)[C@@H](C)C(=O)N[C@H](C)[C@@H](O)c1ccccc1)OC)N(C)C(=O)[C@@H](NC(=O)[C@H](C(C)C)N(C)C(=O)OCc1ccc(NC(=O)O[C@H]2CCCC[C@@H]2SSC[C@H](NC(=O)[C@H](Cc2c[nH]c3ccccc23)NC(=O)[C@H](CC(C)C)NC(=O)[C@H](CC(C)C)NC(=O)[C@H](CC(=O)O)NC(=O)[C@H](CC(C)C)NC(=O)[C@H](CC(C)C)NC(=O)[C@H](CC(C)C)NC(=O)[C@@H](NC(=O)[C@H](CC(=O)O)NC(=O)[C@@H](NC(=O)[C@@H]2CCCN2C(=O)[C@H](Cc2ccccc2)NC(=O)[C@H](CC(C)C)NC(=O)[C@H](CC(C)C)NC(=O)[C@H](CC(=O)O)NC(=O)[C@H](CC(C)C)NC(=O)[C@H](Cc2ccc(O)cc2)NC(=O)[C@H](C)NC(=O)[C@H](CCCNC(=N)N)NC(=O)[C@H](Cc2c[nH]c3ccccc23)NC(=O)[C@@H]2CCCN2C(=O)[C@H](CC(N)=O)NC(=O)[C@H](CCC(N)=O)NC(=O)[C@H](CC(=O)O)NC(=O)[C@H](CC(=O)O)NC(=O)[C@H](C)N)[C@@H](C)O)[C@@H](C)O)C(=O)NCC(N)=O)cc1)C(C)C [Compound 5] | dose responsive efficacy |  |  |  |  |
| CC[C@H](C)[C@@H]([C@@H](CC(=O)N1CCC[C@H]1[C@H](OC)[C@@H](C)C(=O)N[C@H](C)[C@@H](O)c1ccccc1)OC)N(C)C(=O)[C@@H](NC(=O)[C@@H](NC)C(C)C)C(C)C [MMAE, monomethyl auristatin E] (H-[NMeV]V[Dil][Dolaproine]-X1) |  | indiscriminate distribution of MMAE across all tissues | ≤ 6 days | rapid decline in body weight | 2.6 nM |
